In US7037901B1, “Radiosensitization by indolocarbazole derivatives” (priority 2001, dated 2006):

Test system: Chinese hamster CHO cells
Assay: Radiosensitization in CHO cells (preliminary, data not shown)
Format: cell-based
Conditions: non-cytotoxic concentrations of 2 μg/ml and 10 μg/ml

## COC1C(CO)OC(n2c3ccccc3c3c4c(c5c6ccccc6[nH]c5c32)C(=O)OC4=O)C(O)C1O (stereo not shown) [F5]
  Induction of RS: potent inducer of RS
